Measured values as given in paper PMC5605198, “MELK is not necessary for the proliferation of basal-like breast cancer cells” (eLife, 2017).
Where two headings read alike, the source gives them in different places.

Tests used:
[1] = system: panel of breast cancer cell lines; test: 3-day proliferation assays, panel summary; assay type: cell-based
Excerpt: As shRNA-mediated knockdown of MELK was previously reported to inhibit the proliferation of BBC cells, we next tested whether pharmacological inhibition of MELK would have similar effects. We treated a panel of breast cancer cell lines, including MDA-MB-468 and ZR-75-1 cells, with HTH-01-091 and other MELK inhibitors; despite our focus on basal-like breast cancers, we included luminal cell lines for comparison. […] We evaluated the inhibitors in longer-term (7-day) proliferation assays and still observed the same trend, and no clear difference between the breast cancer subtypes (Table 4). We authenticated our MDA-MB-468 line by short tandem repeat analysis, and repeated the proliferation assays using MDA-MB-468 cells from a second source to confirm the modest antiproliferative effects of the selective inhibitors (Table 4).

[2] = target: MKK1 (Homo sapiens, UniProt Q02750); test: ICKP radiometric kinase assay; assay type: biochemical; conditions: read-out: % AR (% kinase activity remaining)
[3] = target: MKK2 (Homo sapiens, UniProt P36507); test: ICKP radiometric kinase assay; assay type: biochemical; conditions: read-out: % AR (% kinase activity remaining)
[4] = target: ERK1 (Homo sapiens, UniProt P27361); test: ICKP radiometric kinase assay; assay type: biochemical; conditions: read-out: % AR (% kinase activity remaining)
[5] = target: ERK2 (Homo sapiens, UniProt P28482); test: ICKP radiometric kinase assay; assay type: biochemical; conditions: read-out: % AR (% kinase activity remaining)
[6] = target: ERK5 (Homo sapiens, UniProt Q13164); test: ICKP radiometric kinase assay; assay type: biochemical; conditions: read-out: % AR (% kinase activity remaining)
[7] = target: p38 gamma (Homo sapiens, UniProt P53778); test: ICKP radiometric kinase assay; assay type: biochemical; conditions: read-out: % AR (% kinase activity remaining)
[8] = target: p38 delta (Homo sapiens, UniProt O15264); test: ICKP radiometric kinase assay; assay type: biochemical; conditions: read-out: % AR (% kinase activity remaining)
[9] = target: PKC zeta (Homo sapiens, UniProt Q05513); test: ICKP radiometric kinase assay; assay type: biochemical; conditions: read-out: % AR (% kinase activity remaining)
[10] = target: STK33 (Homo sapiens, UniProt Q9BYT3); test: ICKP radiometric kinase assay; assay type: biochemical; conditions: read-out: % AR (% kinase activity remaining)
[11] = target: CAMK1 (Homo sapiens, UniProt Q14012); test: ICKP radiometric kinase assay; assay type: biochemical; conditions: read-out: % AR (% kinase activity remaining)
[12] = target: SmMLCK (Homo sapiens, UniProt Q15746); test: ICKP radiometric kinase assay; assay type: biochemical; conditions: for remaining activity at 1 µM: read-out: % AR (% kinase activity remaining)
[13] = target: CHK1 (Homo sapiens, UniProt O14757); test: ICKP radiometric kinase assay; assay type: biochemical; conditions: read-out: % AR (% kinase activity remaining)
[14] = target: CDK9-Cyclin T1 (Homo sapiens, UniProt P50750); test: ICKP radiometric kinase assay; assay type: biochemical; conditions: read-out: % AR (% kinase activity remaining)
[15] = target: MARK1 (Homo sapiens, UniProt Q9P0L2); test: ICKP radiometric kinase assay; assay type: biochemical; conditions: read-out: % AR (% kinase activity remaining)
[16] = target: MARK3 (Homo sapiens, UniProt P27448); test: ICKP radiometric kinase assay; assay type: biochemical; conditions: read-out: % AR (% kinase activity remaining)
[17] = target: TTBK2 (Homo sapiens, UniProt Q6IQ55); test: ICKP radiometric kinase assay; assay type: biochemical; conditions: read-out: % AR (% kinase activity remaining)
[18] = target: DYRK2 (Homo sapiens, UniProt Q92630); test: ICKP radiometric kinase assay; assay type: biochemical; conditions: read-out: % AR (% kinase activity remaining)
[19] = target: HIPK2 (Homo sapiens, UniProt Q9H2X6); test: ICKP radiometric kinase assay; assay type: biochemical; conditions: read-out: % AR (% kinase activity remaining)
[20] = target: MST3 (Homo sapiens, UniProt Q9Y6E0); test: ICKP radiometric kinase assay; assay type: biochemical; conditions: read-out: % AR (% kinase activity remaining)
[21] = target: MST4 (Homo sapiens, UniProt Q9P289); test: ICKP radiometric kinase assay; assay type: biochemical; conditions: read-out: % AR (% kinase activity remaining)
[22] = target: MAP4K3 (Homo sapiens, UniProt Q8IVH8); test: ICKP radiometric kinase assay; assay type: biochemical; conditions: read-out: % AR (% kinase activity remaining)
[23] = target: MAP4K5 (Homo sapiens, UniProt Q9Y4K4); test: ICKP radiometric kinase assay; assay type: biochemical; conditions: read-out: % AR (% kinase activity remaining)
[24] = target: TTK (Homo sapiens, UniProt P33981); test: ICKP radiometric kinase assay; assay type: biochemical; conditions: read-out: % AR (% kinase activity remaining)
[25] = target: ULK1 (Homo sapiens, UniProt O75385); test: ICKP radiometric kinase assay; assay type: biochemical; conditions: read-out: % AR (% kinase activity remaining)
[26] = target: Lck (Homo sapiens, UniProt P06239); test: ICKP radiometric kinase assay; assay type: biochemical; conditions: read-out: % AR (% kinase activity remaining)
[27] = target: YES1 (Homo sapiens, UniProt P07947); test: ICKP radiometric kinase assay; assay type: biochemical; conditions: read-out: % AR (% kinase activity remaining)
[28] = target: TIE2 (Homo sapiens, UniProt Q02763); test: ICKP radiometric kinase assay; assay type: biochemical; conditions: read-out: % AR (% kinase activity remaining)
[29] = target: EPH-B1 (Homo sapiens, UniProt P54762); test: ICKP radiometric kinase assay; assay type: biochemical; conditions: read-out: % AR (% kinase activity remaining)
[30] = target: EPH-B3 (Homo sapiens, UniProt P54753); test: ICKP radiometric kinase assay; assay type: biochemical; conditions: read-out: % AR (% kinase activity remaining)
[31] = target: FGF-R1 (Homo sapiens, UniProt P11362); test: ICKP radiometric kinase assay; assay type: biochemical; conditions: read-out: % AR (% kinase activity remaining)
[32] = target: HER4 (Homo sapiens, UniProt Q15303); test: ICKP radiometric kinase assay; assay type: biochemical; conditions: read-out: % AR (% kinase activity remaining)
[33] = target: IGF-1R (Homo sapiens, UniProt P08069); test: ICKP radiometric kinase assay; assay type: biochemical; conditions: read-out: % AR (% kinase activity remaining)
[34] = target: IRR (Homo sapiens, UniProt P14616); test: ICKP radiometric kinase assay; assay type: biochemical; conditions: read-out: % AR (% kinase activity remaining)
[35] = target: PDGFRA (Homo sapiens, UniProt P16234); test: ICKP radiometric kinase assay; assay type: biochemical; conditions: read-out: % AR (% kinase activity remaining)
[36] = target: PINK (Tribolium castaneum, UniProt D6WMX4); test: ICKP radiometric kinase assay; conditions: read-out: % AR (% kinase activity remaining)
[37] = system: MCF7; test: Cell proliferation assay (CellTiter-Glo); conditions: Homo sapiens
[38] = system: T-47D; test: Cell proliferation assay (CellTiter-Glo); conditions: Homo sapiens, T47D
[39] = MCF7, 72 h, read-out: 3-day antiproliferative IC50
[40] = MCF7, 168 h, read-out: 7-day antiproliferative IC50
[41] = 72 h, read-out: 3-day antiproliferative IC50
[42] = 168 h, read-out: 7-day antiproliferative IC50

Chain of PDGFRA (P16234 24-1089): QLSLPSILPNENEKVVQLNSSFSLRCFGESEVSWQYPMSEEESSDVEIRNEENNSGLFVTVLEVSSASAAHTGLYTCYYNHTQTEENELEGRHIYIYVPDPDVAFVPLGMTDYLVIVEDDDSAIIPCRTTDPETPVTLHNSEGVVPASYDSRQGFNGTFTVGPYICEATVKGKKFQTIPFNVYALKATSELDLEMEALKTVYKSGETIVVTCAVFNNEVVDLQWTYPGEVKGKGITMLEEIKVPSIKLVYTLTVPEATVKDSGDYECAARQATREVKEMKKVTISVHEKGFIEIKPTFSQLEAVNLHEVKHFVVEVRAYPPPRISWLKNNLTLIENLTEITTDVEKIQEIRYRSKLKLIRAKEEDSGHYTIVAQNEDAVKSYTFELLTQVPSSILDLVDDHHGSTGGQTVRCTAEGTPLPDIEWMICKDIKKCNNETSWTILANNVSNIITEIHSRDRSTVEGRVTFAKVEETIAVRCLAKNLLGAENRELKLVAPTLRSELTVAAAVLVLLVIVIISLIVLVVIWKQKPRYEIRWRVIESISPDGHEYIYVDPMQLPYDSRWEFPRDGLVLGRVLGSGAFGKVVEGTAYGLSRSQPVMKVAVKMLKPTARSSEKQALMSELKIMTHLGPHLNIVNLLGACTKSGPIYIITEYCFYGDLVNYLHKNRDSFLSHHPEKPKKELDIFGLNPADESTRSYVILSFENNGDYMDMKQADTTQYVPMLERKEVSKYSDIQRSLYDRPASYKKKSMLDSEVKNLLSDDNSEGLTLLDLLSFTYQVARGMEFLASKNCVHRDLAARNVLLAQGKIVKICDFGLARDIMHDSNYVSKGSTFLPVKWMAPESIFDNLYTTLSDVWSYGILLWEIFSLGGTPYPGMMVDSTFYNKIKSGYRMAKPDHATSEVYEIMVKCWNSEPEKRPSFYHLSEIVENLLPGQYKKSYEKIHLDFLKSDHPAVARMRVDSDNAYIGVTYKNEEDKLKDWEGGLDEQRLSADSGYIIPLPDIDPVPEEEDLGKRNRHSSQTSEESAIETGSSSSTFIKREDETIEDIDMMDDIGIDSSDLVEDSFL
Chain of IGF-1R (P08069 31-1367): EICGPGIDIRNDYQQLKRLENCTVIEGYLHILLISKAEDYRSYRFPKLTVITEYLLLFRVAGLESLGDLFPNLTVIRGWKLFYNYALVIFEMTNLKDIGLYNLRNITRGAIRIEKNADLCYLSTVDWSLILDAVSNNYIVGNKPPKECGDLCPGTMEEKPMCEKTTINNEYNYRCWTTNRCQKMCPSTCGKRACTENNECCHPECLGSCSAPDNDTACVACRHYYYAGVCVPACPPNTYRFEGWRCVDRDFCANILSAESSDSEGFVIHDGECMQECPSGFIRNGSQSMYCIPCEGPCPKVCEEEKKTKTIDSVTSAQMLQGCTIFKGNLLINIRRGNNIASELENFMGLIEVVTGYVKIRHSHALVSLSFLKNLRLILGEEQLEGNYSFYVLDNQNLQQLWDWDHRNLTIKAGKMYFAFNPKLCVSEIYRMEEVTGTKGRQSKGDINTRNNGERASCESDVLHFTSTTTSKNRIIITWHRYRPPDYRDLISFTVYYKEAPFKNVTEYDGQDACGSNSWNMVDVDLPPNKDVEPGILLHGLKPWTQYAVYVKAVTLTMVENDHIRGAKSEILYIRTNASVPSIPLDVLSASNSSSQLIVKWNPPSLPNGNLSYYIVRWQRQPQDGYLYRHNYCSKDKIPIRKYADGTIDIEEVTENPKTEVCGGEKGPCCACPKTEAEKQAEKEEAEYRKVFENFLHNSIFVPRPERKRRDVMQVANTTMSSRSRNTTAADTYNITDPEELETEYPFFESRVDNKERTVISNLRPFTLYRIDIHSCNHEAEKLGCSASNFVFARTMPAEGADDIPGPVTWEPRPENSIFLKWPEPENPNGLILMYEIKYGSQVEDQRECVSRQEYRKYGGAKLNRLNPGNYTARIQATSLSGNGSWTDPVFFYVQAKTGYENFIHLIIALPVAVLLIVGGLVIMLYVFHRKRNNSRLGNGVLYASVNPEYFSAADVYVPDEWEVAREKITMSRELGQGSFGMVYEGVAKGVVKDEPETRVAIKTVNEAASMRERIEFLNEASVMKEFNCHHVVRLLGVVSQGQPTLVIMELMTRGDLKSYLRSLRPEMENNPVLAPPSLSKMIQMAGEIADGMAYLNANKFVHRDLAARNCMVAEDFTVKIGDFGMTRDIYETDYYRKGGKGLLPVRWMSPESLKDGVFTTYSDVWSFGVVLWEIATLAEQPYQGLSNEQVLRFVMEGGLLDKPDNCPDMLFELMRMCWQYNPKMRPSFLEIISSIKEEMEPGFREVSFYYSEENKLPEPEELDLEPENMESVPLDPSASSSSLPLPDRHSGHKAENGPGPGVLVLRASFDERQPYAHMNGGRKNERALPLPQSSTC
Chain of EPH-B3 (P54753 34-998): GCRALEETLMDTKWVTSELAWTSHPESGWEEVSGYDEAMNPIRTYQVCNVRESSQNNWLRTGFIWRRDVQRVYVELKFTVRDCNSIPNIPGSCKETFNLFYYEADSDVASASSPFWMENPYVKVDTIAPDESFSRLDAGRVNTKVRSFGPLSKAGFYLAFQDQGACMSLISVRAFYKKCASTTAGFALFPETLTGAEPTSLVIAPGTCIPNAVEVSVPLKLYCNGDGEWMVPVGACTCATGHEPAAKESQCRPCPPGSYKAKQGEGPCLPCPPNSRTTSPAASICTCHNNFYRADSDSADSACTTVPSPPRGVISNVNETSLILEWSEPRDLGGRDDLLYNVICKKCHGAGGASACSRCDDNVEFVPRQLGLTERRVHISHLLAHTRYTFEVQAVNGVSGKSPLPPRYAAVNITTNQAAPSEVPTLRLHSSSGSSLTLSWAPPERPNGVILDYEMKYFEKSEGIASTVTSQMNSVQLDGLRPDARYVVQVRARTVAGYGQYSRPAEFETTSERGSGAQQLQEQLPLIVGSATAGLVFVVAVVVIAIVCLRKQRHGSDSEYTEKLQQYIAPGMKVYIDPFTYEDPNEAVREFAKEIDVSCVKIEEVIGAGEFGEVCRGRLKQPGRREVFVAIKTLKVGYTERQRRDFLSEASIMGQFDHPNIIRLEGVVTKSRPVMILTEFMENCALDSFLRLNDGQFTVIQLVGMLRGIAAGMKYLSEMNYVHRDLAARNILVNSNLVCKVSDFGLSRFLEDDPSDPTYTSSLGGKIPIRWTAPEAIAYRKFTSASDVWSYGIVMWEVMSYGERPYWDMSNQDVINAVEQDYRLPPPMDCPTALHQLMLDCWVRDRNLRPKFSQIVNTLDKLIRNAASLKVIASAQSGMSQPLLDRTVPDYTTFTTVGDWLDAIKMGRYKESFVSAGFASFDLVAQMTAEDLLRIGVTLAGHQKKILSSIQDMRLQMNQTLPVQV
Chain of CDK9-Cyclin T1 (P50750 whole entry): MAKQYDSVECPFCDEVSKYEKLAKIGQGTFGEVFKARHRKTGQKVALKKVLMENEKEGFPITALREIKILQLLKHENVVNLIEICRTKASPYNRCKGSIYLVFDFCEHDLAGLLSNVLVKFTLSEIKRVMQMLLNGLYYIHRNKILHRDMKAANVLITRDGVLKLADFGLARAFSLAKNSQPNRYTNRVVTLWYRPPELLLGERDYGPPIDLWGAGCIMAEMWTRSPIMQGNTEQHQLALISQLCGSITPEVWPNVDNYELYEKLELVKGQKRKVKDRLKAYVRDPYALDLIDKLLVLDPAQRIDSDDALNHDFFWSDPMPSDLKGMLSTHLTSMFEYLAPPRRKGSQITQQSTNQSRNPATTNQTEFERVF
Chain of CDK9-Cyclin T1 (O60563 whole entry partner): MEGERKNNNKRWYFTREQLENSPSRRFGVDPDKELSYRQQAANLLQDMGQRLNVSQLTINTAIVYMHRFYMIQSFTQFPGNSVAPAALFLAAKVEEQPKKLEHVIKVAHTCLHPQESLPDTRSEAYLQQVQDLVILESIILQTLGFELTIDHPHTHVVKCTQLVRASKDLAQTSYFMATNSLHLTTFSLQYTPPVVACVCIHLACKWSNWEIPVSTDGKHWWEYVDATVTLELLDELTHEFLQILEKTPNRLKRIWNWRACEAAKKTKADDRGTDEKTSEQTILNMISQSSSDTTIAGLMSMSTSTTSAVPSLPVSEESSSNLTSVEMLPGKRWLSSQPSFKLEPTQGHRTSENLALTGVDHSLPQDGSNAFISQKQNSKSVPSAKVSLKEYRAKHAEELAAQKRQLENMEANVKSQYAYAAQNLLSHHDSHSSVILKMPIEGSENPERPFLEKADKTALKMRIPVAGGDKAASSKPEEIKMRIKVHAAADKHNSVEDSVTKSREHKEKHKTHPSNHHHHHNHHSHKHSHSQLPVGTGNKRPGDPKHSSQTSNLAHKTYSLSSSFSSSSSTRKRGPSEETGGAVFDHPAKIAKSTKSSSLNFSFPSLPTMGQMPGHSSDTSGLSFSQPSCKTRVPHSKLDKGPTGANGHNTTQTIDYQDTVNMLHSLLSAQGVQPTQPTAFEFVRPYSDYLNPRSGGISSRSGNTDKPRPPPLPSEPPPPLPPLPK
Chain of YES1 (P07947 whole entry): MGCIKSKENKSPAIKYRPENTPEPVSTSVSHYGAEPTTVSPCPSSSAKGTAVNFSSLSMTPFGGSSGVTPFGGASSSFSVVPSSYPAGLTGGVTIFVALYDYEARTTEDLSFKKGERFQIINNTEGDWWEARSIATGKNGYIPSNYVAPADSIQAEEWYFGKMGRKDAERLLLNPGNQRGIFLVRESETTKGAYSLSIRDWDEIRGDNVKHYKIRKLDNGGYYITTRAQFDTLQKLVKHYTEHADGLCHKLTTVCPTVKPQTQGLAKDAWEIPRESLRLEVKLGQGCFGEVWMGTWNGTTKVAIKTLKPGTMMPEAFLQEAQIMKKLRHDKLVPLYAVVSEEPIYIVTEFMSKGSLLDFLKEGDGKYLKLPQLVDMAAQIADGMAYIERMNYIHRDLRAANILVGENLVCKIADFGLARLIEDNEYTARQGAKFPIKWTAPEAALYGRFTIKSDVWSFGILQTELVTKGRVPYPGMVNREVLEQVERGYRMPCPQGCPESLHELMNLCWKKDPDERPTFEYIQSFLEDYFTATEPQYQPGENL

`CN(C)C[C@H]1CC[C@H](N2C(=O)NCc3cnc4ccc(-c5cc(Cl)c(O)c(Cl)c5)cc4c32)CC1` [HTH-01-091, 9-(3,5-dichloro-4-hydroxyphenyl)-1-(trans-4-((dimethylamino)methyl)cyclohexyl)-3,4-dihydropyrimido[5,4 c]quinolin-2(1H)-one] was tested, and the “antiproliferative IC50 values, fold less potent than OTSSP167” value [1] was “at least 300 fold”, the remaining activity at 1 µM [2] was 62% and the remaining activity at 1 µM [3] was 75%. The remaining activity at 1 µM [4] was 119%, the remaining activity at 1 µM [5] was 93% and the remaining activity at 1 µM [6] was 70%. It also gave a remaining activity at 1 µM [7] of 86%, a remaining activity at 1 µM [8] of 89% and a remaining activity at 1 µM [9] of 96%. For the same compound, the remaining activity at 1 µM [10] was 26%, the remaining activity at 1 µM [11] was 93% and the IC50 ([12]; radioactive filter-binding assay provided by the ICKP, read-out: Enzymatic IC50 SmMLCK) was 109 nM. For the same compound, the remaining activity at 1 µM [12] was 8%, the remaining activity at 1 µM [13] was 86% and the remaining activity at 1 µM [14] was 92%. The remaining activity at 1 µM [15] was 97%, the remaining activity at 1 µM [16] was 94% and the remaining activity at 1 µM [17] was 86%. The remaining activity at 1 µM [18] was 18%, the remaining activity at 1 µM [19] was 13% and the remaining activity at 1 µM [20] was 93%. For the same compound, the remaining activity at 1 µM [21] was 96%, the remaining activity at 1 µM [22] was 55% and the remaining activity at 1 µM [23] was 32%. It also gave a remaining activity at 1 µM [24] of 53%, a remaining activity at 1 µM [25] of 93% and a remaining activity at 1 µM [26] of 35%. For the same compound, the remaining activity at 1 µM [27] was 32%, the remaining activity at 1 µM [28] was 71% and the remaining activity at 1 µM [29] was 122%. It also gave a remaining activity at 1 µM [30] of 99%, a remaining activity at 1 µM [31] of 82% and a remaining activity at 1 µM [32] of 84%. The remaining activity at 1 µM [33] was 92%, the remaining activity at 1 µM [34] was 79% and the remaining activity at 1 µM [35] was 35%. For the same compound, the remaining activity at 1 µM [36] was 93%, the IC50 [37, 39] was 8750 nM and the IC50 [37, 40] was 4130 nM. The IC50 [38, 41] was 3870 nM and the IC50 [38, 42] was 780 nM.

In the case of `CC(=O)c1cnc2ccc(-c3cc(Cl)c(O)c(Cl)c3)nc2c1N[C@H]1CC[C@H](CN(C)C)CC1` [OTSSP167], the IC50 ([1]; 72 h, most cell lines tested, read-out: half maximal killing) is reported as < 100 nM, the remaining activity at 1 µM [2] is reported as 3% and the remaining activity at 1 µM [3] is reported as 10%. The remaining activity at 1 µM [4] was 88%, the remaining activity at 1 µM [5] was 90% and the remaining activity at 1 µM [6] was 4%. The remaining activity at 1 µM [7] was 12%, the remaining activity at 1 µM [8] was 4% and the remaining activity at 1 µM [9] was 19%. It also gave a remaining activity at 1 µM [10] of 10%, a remaining activity at 1 µM [11] of 15% and a remaining activity at 1 µM [12] of 6%. The remaining activity at 1 µM [13] was 11%, the remaining activity at 1 µM [14] was 4% and the remaining activity at 1 µM [15] was 31%. For the same compound, the remaining activity at 1 µM [16] was 13%, the remaining activity at 1 µM [17] was 91% and the remaining activity at 1 µM [18] was 1%. It also gave a remaining activity at 1 µM [19] of 2%, a remaining activity at 1 µM [20] of 5% and a remaining activity at 1 µM [21] of 5%. For the same compound, the remaining activity at 1 µM [22] was 1%, the remaining activity at 1 µM [23] was 3% and the remaining activity at 1 µM [24] was 3%. The remaining activity at 1 µM [25] was 32%, the remaining activity at 1 µM [26] was 0% and the remaining activity at 1 µM [27] was 18%. The remaining activity at 1 µM [28] was 3%, the remaining activity at 1 µM [29] was 11% and the remaining activity at 1 µM [30] was 18%. For the same compound, the remaining activity at 1 µM [31] was 4%, the remaining activity at 1 µM [32] was 4% and the remaining activity at 1 µM [33] was 4%. The remaining activity at 1 µM [34] was 6%, the remaining activity at 1 µM [35] was 20% and the remaining activity at 1 µM [36] was 89%. The IC50 [37, 39] was 35 nM, the IC50 [37, 40] was 27 nM and the IC50 [38, 41] was 106 nM. It also gave an IC50 [38, 42] of 9 nM.
